According to ChEMBL document CHEMBL4513149, “CO-ADD screening of MMV (CH) - MMV compounds” (2021):
Values after ≈ are worked out from the molar mass of the structure shown.

Legend:
Acinetobacter baumannii [1] = conditions: ASSAY_TEST Inhibition of Bacterial Growth; detection method Absorption (OD600); MEDIA CAMHB; plate type 384well; NBS; CORNING #3640; time 18 hr
Description: (§1) Antibacterial activity against Acinetobacter baumannii ATCC 19606 (CO-ADD:GN_034); MIC in CAMBH media using NBS plates, by OD600

HEK293 = experiment: cells; assay type: functional; conditions: Homo sapiens, ATCC CRL1573, HEK293; ASSAY_TEST Inhibition of Cell Viability; detection method Resazurin; Fluorescence (ex560/em590); MEDIA DMEM with 10% FBS; plate type 384well; TC; CORNING #3712; time 18 hr
Staphylococcus aureus [2] = conditions: ASSAY_TEST Inhibition of Bacterial Growth; detection method Absorption (OD600); MEDIA CAMHB; plate type 384well; NBS; CORNING #3640; time 18 hr
Description: (§2) Antibacterial activity against Staphylococcus aureus MRSA ATCC 43300 (CO-ADD:GP_020); MIC in CAMBH media, using NBS plates, by OD(600)

Klebsiella pneumoniae [3] = conditions: ASSAY_TEST Inhibition of Bacterial Growth; detection method Absorption (OD600); MEDIA CAMHB; plate type 384well; NBS; CORNING #3640; time 18 hr
Description: (§3) Antibacterial activity against Klebsiella pneumoniae MDR ATCC 70063 (CO-ADD:GN_003); MIC in CAMBH media using NBS plates, by OD(600)

Escherichia coli [4] = conditions: ASSAY_TEST Inhibition of Bacterial Growth; detection method Absorption (OD600); MEDIA CAMHB; plate type 384well; NBS; CORNING #3640; time 18 hr
Description: (§4) Antibacterial activity against Escherichia coli ATCC 25922 (CO-ADD:GN_001); MIC in CAMBH media using NBS plates, by OD(600)

Pseudomonas aeruginosa [5] = conditions: ASSAY_TEST Inhibition of Bacterial Growth; detection method Absorption (OD600); MEDIA CAMHB; plate type 384well; NBS; CORNING #3640; time 18 hr
Description: (§5) Antibacterial activity against Pseudomonas aeruginosa ATCC 27853 (CO-ADD:GN_042); MIC in CAMBH media using NBS plates, by OD(600)

Candida albicans [6] = conditions: ASSAY_TEST Inhibition of Fungal Growth; detection method Absorption (OD530); plate type 384well; NBS; CORNING #3640
Description: (§6) Antifungal activity against Candida albicans ATCC 90028 (CO-ADD:FG_001); MIC in YNB media using NBS plates, by OD630

Staphylococcus aureus [7] = experiment: microbe, parasite or virus in culture; conditions: ATCC 43300, 18 h, ASSAY_TEST Inhibition of Bacterial Growth, detection method Absorption (OD600), MEDIA CAMHB, plate type 384well, NBS, CORNING #3640
Description: as §2

Pseudomonas aeruginosa [8] = experiment: microbe, parasite or virus in culture; conditions: ATCC 27853, 18 h, ASSAY_TEST Inhibition of Bacterial Growth, detection method Absorption (OD600), MEDIA CAMHB, plate type 384well, NBS, CORNING #3640
Description: as §5

Escherichia coli [9] = experiment: microbe, parasite or virus in culture; conditions: ATCC 25922, 18 h, ASSAY_TEST Inhibition of Bacterial Growth, detection method Absorption (OD600), MEDIA CAMHB, plate type 384well, NBS, CORNING #3640
Description: as §4

Candida albicans [10] = experiment: microbe, parasite or virus in culture; conditions: ATCC 90028, ASSAY_TEST Inhibition of Fungal Growth, detection method Absorption (OD530), plate type 384well, NBS, CORNING #3640
Description: as §6

Acinetobacter baumannii [11] = experiment: microbe, parasite or virus in culture; conditions: ATCC 19606, 18 h, ASSAY_TEST Inhibition of Bacterial Growth, detection method Absorption (OD600), MEDIA CAMHB, plate type 384well, NBS, CORNING #3640
Description: as §1

Klebsiella pneumoniae [12] = experiment: microbe, parasite or virus in culture; conditions: ATCC 700603, 18 h, ASSAY_TEST Inhibition of Bacterial Growth, detection method Absorption (OD600), MEDIA CAMHB, plate type 384well, NBS, CORNING #3640
Description: as §3

Description for Cryptococcus neoformans: Antifungal activity against Cryptococcus neoformans H99 ATCC 208821 (CO-ADD:FG_002); MIC in YNB media using NBS plates, by Resazurin OD(600-570)

SMILES | MIC (Acinetobacter baumannii [1]) [µM] | MIC (Cryptococcus neoformans) [µM] | CC50 (HEK293) [µM] | MIC (Staphylococcus aureus [2]) [µM] | MIC (Klebsiella pneumoniae [3]) [µM] | MIC (Escherichia coli [4]) | MIC (Pseudomonas aeruginosa [5]) [µM] | MIC (Candida albicans [6]) [µM] | MIC (Staphylococcus aureus [7]) [µM] | MIC (Pseudomonas aeruginosa [8]) [µM] | MIC (Escherichia coli [9]) [µM] | MIC (Candida albicans [10]) [µM] | MIC (Acinetobacter baumannii [11]) [µM] | MIC (Klebsiella pneumoniae [12]) [µM]
C[C@H]1COc2c(N3CCN(C)CC3)c(F)cc3c(=O)c(C(=O)O)cn1c23.C[C@H]1COc2c(N3CCN(C)CC3)c(F)cc3c(=O)c(C(=O)O)cn1c23.O [LEVOFLOXACIN] | 2.5 | > 10 | > 10 | 0.625 | 2.5 | <=0.0781 uM | 0.625 | >10 | – | – | – | – | – | –
N=C(N)c1ccc(OCCCCCOc2ccc(C(=N)N)cc2)cc1 [PENTAMIDINE ISETHIONATE] | – | > 10 | > 10 | – | – | – | – | – | > 10 | > 10 | > 10 | 0.312 | > 10 | > 10
CC[C@@H]([C@H](C)O)n1ncn(-c2ccc(N3CCN(c4ccc(OC[C@@H]5CO[C@@](Cn6cncn6)(c6ccc(F)cc6F)C5)cc4)CC3)cc2)c1=O [POSACONAZOLE] | – | 1.25 (≈ 0.876 µg/mL) | > 10 | – | – | – | – | – | > 10 | > 10 | > 10 | 0.156 (≈ 0.11 µg/mL) | > 10 | > 10
COc1cc(NC(C)CCCN)c2ncccc2c1.O=P(O)(O)O.O=P(O)(O)O (stereo not drawn) [PRIMAQUINE PHOSPHATE] | >10 | > 10 | > 10 | 10 | >10 | >10 µM | >10 | >10 | – | – | – | – | – | –
CC(=O)NC[C@H]1CN(c2ccc(N3CCSCC3)c(F)c2)C(=O)O1 [SUTEZOLID] | – | > 10 | > 10 | – | – | – | – | – | 5 (≈ 1.77 µg/mL) | > 10 | > 10 | > 10 | > 10 | > 10
CCc1nn(C)c(C(=O)NCc2ccc(Oc3ccc(C)cc3)cc2)c1Cl [TOLFENPYRAD] | – | 10 (≈ 3.84 µg/mL) | > 10 | – | – | – | – | – | > 10 | > 10 | > 10 | > 10 | > 10 | > 10
